Tests used:
[1] = target: Delta-type opioid receptor (Rattus norvegicus, UniProt P33533); test: Displacement of [3H]deltorphin II from rat delta opioid receptor in brain P2 synaptosomes; assay type: subcellular
Mu-type opioid receptor [2] = target: Mu-type opioid receptor (Rattus norvegicus, UniProt P33535); test: Displacement of [3H]DAMGO from rat mu opioid receptor in brain P2 synaptosomes; assay type: subcellular
[3] = target: Delta-type opioid receptor (Mus musculus, UniProt P32300); test: Functional bioactivity against delta opioid receptor in mouse vas deferens; assay type: tissue-based; conditions: for Kb: read-out: pA2 (converted)
Mu-type opioid receptor [4] = target: Mu-type opioid receptor (Cavia porcellus, UniProt P97266); test: Functional bioactivity against mu opioid receptor in guinea-pig ileum; assay type: tissue-based
Mu-type opioid receptor (Cavia porcellus, UniProt P97266), sequence (P97266 whole entry): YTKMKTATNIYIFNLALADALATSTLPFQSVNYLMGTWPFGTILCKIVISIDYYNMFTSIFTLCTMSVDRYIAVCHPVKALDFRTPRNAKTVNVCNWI

Mu-type opioid receptor (Rattus norvegicus, UniProt P33535), sequence (P33535 whole entry): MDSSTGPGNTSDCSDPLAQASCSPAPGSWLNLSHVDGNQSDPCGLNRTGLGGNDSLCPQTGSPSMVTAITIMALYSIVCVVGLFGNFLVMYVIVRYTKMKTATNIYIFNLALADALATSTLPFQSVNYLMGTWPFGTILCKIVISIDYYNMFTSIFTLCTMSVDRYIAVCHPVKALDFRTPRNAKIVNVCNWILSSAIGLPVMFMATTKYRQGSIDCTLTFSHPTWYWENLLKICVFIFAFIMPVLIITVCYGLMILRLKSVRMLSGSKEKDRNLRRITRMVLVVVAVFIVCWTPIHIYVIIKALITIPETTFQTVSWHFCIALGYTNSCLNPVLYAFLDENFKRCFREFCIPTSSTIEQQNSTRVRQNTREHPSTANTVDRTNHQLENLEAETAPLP
Delta-type opioid receptor (Rattus norvegicus, UniProt P33533), sequence (P33533 whole entry): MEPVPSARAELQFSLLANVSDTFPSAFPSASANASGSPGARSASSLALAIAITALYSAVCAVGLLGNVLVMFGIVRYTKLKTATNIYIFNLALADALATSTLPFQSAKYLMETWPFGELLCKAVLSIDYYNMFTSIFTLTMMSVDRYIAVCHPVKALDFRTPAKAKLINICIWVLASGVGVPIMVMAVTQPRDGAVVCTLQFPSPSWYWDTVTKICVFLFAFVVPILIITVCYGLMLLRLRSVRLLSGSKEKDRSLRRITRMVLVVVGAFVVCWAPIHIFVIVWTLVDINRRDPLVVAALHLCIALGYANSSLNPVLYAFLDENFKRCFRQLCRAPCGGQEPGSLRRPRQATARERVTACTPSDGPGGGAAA
Delta-type opioid receptor (Mus musculus, UniProt P32300), sequence (P32300 whole entry): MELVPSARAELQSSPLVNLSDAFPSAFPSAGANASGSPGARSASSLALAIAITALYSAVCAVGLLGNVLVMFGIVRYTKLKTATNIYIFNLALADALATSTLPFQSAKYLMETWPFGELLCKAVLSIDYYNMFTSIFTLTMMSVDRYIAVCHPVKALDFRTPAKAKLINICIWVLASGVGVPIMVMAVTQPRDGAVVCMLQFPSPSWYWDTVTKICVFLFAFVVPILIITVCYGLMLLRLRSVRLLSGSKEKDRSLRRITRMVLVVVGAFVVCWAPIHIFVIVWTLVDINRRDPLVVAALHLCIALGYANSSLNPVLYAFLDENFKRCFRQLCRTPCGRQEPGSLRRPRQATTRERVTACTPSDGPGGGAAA

| SMILES | Ki [1] | Ki (Mu-type opioid receptor [2]) | IC50 [3] | Kb [3] | IC50 (Mu-type opioid receptor [4]) |
| --- | --- | --- | --- | --- | --- |
| CCOC(=O)Cn1c(CNC(=O)[C@@H]2Cc3ccccc3CN2C(=O)[C@@H](N)Cc2c(C)cc(O)cc2C)nc2ccccc21 | 0.12 nM | 1.42 nM | Not Active | 0.17 nM | 30 nM |
| Cc1cc(O)cc(C)c1C[C@H](N)C(=O)N1Cc2ccccc2C[C@H]1C(=O)NCc1nc2ccccc2n1CC(=O)O | 0.021 nM | 6.92 nM | Not Active | 0.269 nM | 3190 nM |
| Cc1cc(O)cc(C)c1C[C@H](N)C(=O)N1Cc2ccccc2C[C@H]1C(=O)NCc1nc2ccccc2n1C | 0.16 nM | 0.83 nM | Not Active | 0.0724 nM | 450 nM |
| C=CCn1c(CNC(=O)[C@@H]2Cc3ccccc3CN2C(=O)[C@@H](N)Cc2c(C)cc(O)cc2C)nc2ccccc21 | 0.13 nM | 0.44 nM | Not Active | 0.457 nM | 72 nM |
| Cc1cc(O)cc(C)c1C[C@H](N)C(=O)N1Cc2ccccc2C[C@H]1C(=O)NCc1nc2ccccc2n1Cc1ccccc1 | 0.2 nM | 1.02 nM | Not Active | 3.02 nM | 245 nM |
| C[C@@H](NC(=O)[C@@H](N)Cc1ccc(O)cc1)C(=O)N[C@@H](Cc1ccccc1)C(=O)NCC(=O)N[C@@H](Cc1ccc(O)cc1)C(=O)N1CCC[C@H]1C(=O)N[C@@H](CO)C(N)=O [DERMORPHIN] |  |  |  |  | 1.9 nM |
| Cc1cc(O)cc(C)c1C[C@H](N)C(=O)N1Cc2ccccc2C[C@H]1C(=O)NCc1nc2ccccc2n1CC1CC1 | 0.36 nM | 0.52 nM | Not Active | 0.339 nM | 64 nM |
| CC(C)[C@H](NC(=O)[C@H](CC(=O)O)NC(=O)[C@H](Cc1ccccc1)NC(=O)[C@@H](C)NC(=O)[C@@H](N)Cc1ccc(O)cc1)C(=O)N[C@H](C(=O)NCC(N)=O)C(C)C [DELTORPHIN C] |  |  |  |  | 1300 nM |
